Tests used:
[1] = Ex vivo radio-HPLC analysis of mouse plasma after radiotracer injection; format: in vivo; details: for plasma concentration: 30 min after radiotracer injection; for increase of plasma concentration by ketoconazole pretreatment: both wild-type and knockout mice, ketoconazole 50 mg/kg i.p.
P-glycoprotein (P-gp) = details: cited from earlier work
[2] = Ex vivo radio-HPLC analysis of mouse whole brain after radiotracer injection; format: in vivo; details: for increase of brain concentration by ketoconazole pretreatment: ketoconazole 50 mg/kg i.p.; for brain concentration: 30 min after radiotracer injection
CYP3A4 = details: cited from earlier work
cDNA-expressed CYP3A4 = details: in vitro; cited from earlier work
[3] = P-gp knockout mice, baseline (no ketoconazole)
[4] = P-gp knockout mice, ketoconazole 50 mg/kg i.p. pretreatment
[5] = wild-type mice, baseline (no ketoconazole)
[6] = wild-type mice, ketoconazole 50 mg/kg i.p. pretreatment
[7] = P-gp knockout mice, after [11C]loperamide
[8] = wild-type mice, after [11C]loperamide

Row | SMILES | plasma concentration [1, 3] [% SUV] | plasma concentration [1, 4] [% SUV] | increase of plasma concentration by ketoconazole pretreatment [1] | plasma concentration [1, 5] [% SUV] | plasma concentration [1, 6] [% SUV] | P-gp substrate (P-glycoprotein (P-gp)) | increase of brain concentration by ketoconazole pretreatment [2, 7] | brain concentration ([2]; P-gp knockout mice, baseline) [% SUV] | brain concentration [2, 4] [% SUV] | effect of ketoconazole pretreatment on brain concentration ([2]; either knockout or wild-type mice, after [11C]dLop) | effect of ketoconazole pretreatment on brain concentration [2, 8] | brain concentration ([2]; wild-type mice, baseline) [% SUV] | brain concentration [2, 6] [% SUV] | Ki (CYP3A4) [µM] | inhibition of the N-demethylation of loperamide (cDNA-expressed CYP3A4) [%]
1 | CN([11CH3])C(=O)C(CCN1CCC(O)(c2ccc(Cl)cc2)CC1)(c1ccccc1)c1ccccc1 [[^11C]dLop] [[N-methyl-^11C]N-desmethyl-loperamide] | 2.26 ± 0.54 | 3.4 ± 0.4 | about two-fold | 1.36 ± 0.18 | 3.3 ± 0.4 | avid substrate for P-gp | two-fold | 37.1 ± 7.3 | 37.9 ± 6.7 | little effect | did not increase | 1.93 ± 0.52 | 2.2 ± 0.5 |  | 
2 | CN([11CH3])C(=O)C(CCN1CCC(O)(c2ccc(Cl)cc2)CC1)(c1ccccc1)c1ccccc1 [[^11C]loperamide] [[N-methyl-^11C]loperamide] | 7.37 ± 4.55 | 17.1± 9.0 | about two-fold | 10.3 ± 2.1 | 17.6 ± 5.9 |  | about two-fold | 20.4 ± 3.2 | 43.9 ± 14.0 |  | no effect | 2.86 ± 0.97 | 2.9± 0.7 |  | 
3 | CN(C)C(=O)C(CCN1CCC(O)(c2ccc(Cl)cc2)CC1)(c1ccccc1)c1ccccc1 [loperamide, reference compound] |  |  |  |  |  | avid substrate for P-gp |  |  |  |  |  |  |  |  | 
4 | CC(=O)N1CCN(c2ccc(OCC3COC(Cn4ccnc4)(c4ccc(Cl)cc4Cl)O3)cc2)CC1 (stereo not drawn) [ketoconazole] |  |  |  |  |  |  |  |  |  |  |  |  |  | […] | 90
